Test results reported in the NIST ThermoML archive (doi:10.1016/j.jct.2006.05.008).
Numbers after ± are expanded uncertainties.

Test: molar heat capacity at constant pressure
Conditions: 101.33 kPa, Small (less than 1 g) adiabatic calorimetry

CCCCn1cc[n+](C)c1.[Br-] [1-butyl-3-methylimidazolium bromide]
Conditions | molar heat capacity at constant pressure [J/K/mol]
41.66 K, Glass | 62.09 ± 0.41
43.35 K, Crystal | 66.08 ± 0.43
43.62 K, Glass | 64.96 ± 0.43
45 K, Crystal | 68.34 ± 0.44
45.33 K, Crystal | 68.81 ± 0.44
45.59 K, Glass | 67.7 ± 0.44
47.31 K, Crystal | 71.45 ± 0.46
47.56 K, Glass | 70.47 ± 0.45
49.28 K, Crystal | 73.96 ± 0.47
49.53 K, Glass | 73.04 ± 0.47
50 K, Crystal | 74.81 ± 0.47
51.25 K, Crystal | 76.33 ± 0.48
51.5 K, Glass | 75.54 ± 0.48
53.22 K, Crystal | 78.7 ± 0.49
53.47 K, Glass | 77.99 ± 0.49
55.2 K, Crystal | 80.87 ± 0.5
55.43 K, Glass | 80.39 ± 0.5
57.18 K, Crystal | 82.96 ± 0.51
57.4 K, Glass | 82.69 ± 0.51
59.15 K, Crystal | 84.96 ± 0.53
59.37 K, Glass | 85.02 ± 0.53
60 K, Crystal | 85.89 ± 0.5
61.12 K, Crystal | 87.04 ± 0.53
61.34 K, Glass | 87.33 ± 0.54
63.1 K, Crystal | 89.03 ± 0.55
63.31 K, Glass | 89.56 ± 0.55
65.08 K, Crystal | 90.98 ± 0.55
65.29 K, Glass | 91.73 ± 0.56
67.06 K, Crystal | 92.73 ± 0.56
67.27 K, Glass | 93.78 ± 0.57
69.04 K, Crystal | 94.46 ± 0.57
69.25 K, Glass | 95.85 ± 0.58
70 K, Crystal | 95.2 ± 0.58
71.02 K, Crystal | 96.12 ± 0.58
71.23 K, Glass | 97.82 ± 0.59
73.01 K, Crystal | 97.71 ± 0.59
73.21 K, Glass | 99.78 ± 0.6
75 K, Crystal | 99.35 ± 0.6
75.2 K, Glass | 101.73 ± 0.61
76.99 K, Crystal | 101.08 ± 0.6
77.19 K, Glass | 103.84 ± 0.62
78.99 K, Crystal | 102.78 ± 0.61
79.19 K, Glass | 105.86 ± 0.63
79.88 K, Crystal | 103.13 ± 0.62
80 K, Crystal | 103.3 ± 0.58
80.98 K, Crystal | 104.4 ± 0.62
81.18 K, Glass | 107.71 ± 0.64
81.99 K, Glass | 108.36 ± 0.64
82.98 K, Crystal | 105.64 ± 0.63
83.34 K, Crystal | 105.95 ± 0.63
84.53 K, Glass | 110.36 ± 0.65
84.99 K, Crystal | 106.91 ± 0.64
85.34 K, Crystal | 107.22 ± 0.64
86.53 K, Glass | 112.03 ± 0.66
87.34 K, Crystal | 108.66 ± 0.64
88.52 K, Glass | 113.8 ± 0.67
89.34 K, Crystal | 110.09 ± 0.65
90 K, Crystal | 110.5 ± 0.67
90.52 K, Glass | 115.58 ± 0.66
91.34 K, Crystal | 111.54 ± 0.65
92.52 K, Glass | 117.14 ± 0.67
93.34 K, Crystal | 112.75 ± 0.65
94.51 K, Glass | 118.71 ± 0.67
95.34 K, Crystal | 114.08 ± 0.66
96.52 K, Glass | 120.45 ± 0.68
97.35 K, Crystal | 115.46 ± 0.66
98.52 K, Glass | 121.83 ± 0.69
99.35 K, Crystal | 116.72 ± 0.67
100 K, Crystal | 117.1 ± 0.67
100.53 K, Glass | 123.29 ± 0.69
101.36 K, Crystal | 118.12 ± 0.67
102.54 K, Glass | 125.09 ± 0.7
103.37 K, Crystal | 119.58 ± 0.68
104.55 K, Glass | 126.48 ± 0.71
105.39 K, Crystal | 120.44 ± 0.68
106.56 K, Glass | 127.9 ± 0.71
107.41 K, Crystal | 121.58 ± 0.69
108.57 K, Glass | 129.45 ± 0.72
109.43 K, Crystal | 122.78 ± 0.69
110 K, Crystal | 123.1 ± 0.67
110.59 K, Glass | 130.89 ± 0.72
111.44 K, Crystal | 123.99 ± 0.7
112.61 K, Glass | 132.26 ± 0.73
113.47 K, Crystal | 125.16 ± 0.7
114.64 K, Glass | 133.7 ± 0.73
115.5 K, Crystal | 126.62 ± 0.71
116.67 K, Glass | 135.05 ± 0.74
117.53 K, Crystal | 127.63 ± 0.7
118.69 K, Glass | 136.36 ± 0.75
119.57 K, Crystal | 128.57 ± 0.71
120 K, Crystal | 128.8 ± 0.75
120.72 K, Glass | 137.61 ± 0.75
121.6 K, Crystal | 129.71 ± 0.72
